Data set [1] can be described thus: Thiol neutralization on pig skin (LCMS). The note with it: with spermine in 50% propylene glycol, 2-phenylethanethiol, 10 min. How it is done:
After the Pericosine composition was applied to the thiol on the pig skin and allowed to react for 10 minutes, an eluate from the treated area was analyzed with LCMS. Only a pericosine-thiol conjugate was detected.
Pericosine A, spermine, and the model thiol compound 2-phenylethanethiol were prepared into 100 mM stock solutions in dimethyl sulfoxide (DMSO). 5 uL pericosine A and 5 uL spermine solutions were pre-mixed into 50 uL 50% propylene glycol to form a test composition. A piece of pig skin (1 inch×1 inch) was placed in a 10-cm ID petri dish. 5 uL of the thiol solution was dispensed onto the pig skin sample. The pericosine test composition was applied to the thiol-treated spot on the pig skin sample. The petri dish was covered and gently agitated to cause the thiol sample to mix with the pericosine test composition. After 10 min incubation, the solution on the pig skin was transferred using a pipet into an Eppendorf tube. The treated spot on the pig skin was extracted with 100 uL MeOH and the MeOH solution was combined with the solution in the Eppendorf tube. After mixing and centrifuging, the mixed solution was subjected to LCMS analysis.
As shown in FIG. 21(a), a major pericosine-thiol conjugated product was detected by the LCMS analysis in the solution removed from the pig skin.

The subject of another data set is Tolypocladium sp. T1. Nature of the data set: Antifungal test against T1 in PDB / PDB-N media (fresh or 5-day-old T1 broth). Format: cell-based. The note with it: for effect of supplemental NaNO3 in test medium on antifungal efficacy: against T1, PDB-N = PDB plus 2 g/L NaNO3; for sensitivity of T1 to antifungal activity, normal versus NaNO3-supplemented medium: freshly prepared media, 3-day test window; for resistance of T1 culture: test medium prepared from 5-day-old T1 culture broth, non-NaNO3-supplemented. The text has this:
(§1) Media types: PDB (potato dextrose broth); PDB-N(PDB plus 2 g/L NaNO3); PDB 8:2 (mixture of centrifuged broth of T1 grown in PDB for 5 days with fresh PDB at the ratio of 8:2); PDB-N 8:2 (mixture of centrifuged broth of T1 grown in PDB-N for 5 days with fresh PDB at the ratio of 8:2).
(§2) This prompted us to ask the question what effect the addition of the shikimate analogue moiety had on the bioactivities of compounds 8, 9, 12, and the other nucleophilic substances that we tested. A panel of fungi including four Tolypocladium spp. (T1-T4), four Penicillium spp. (P1-P4) and Aspergillus niger (A1) were selected for assessment. […] To test the capacity of 11 to block the toxicity of 13 in real time, fungal cultures were preincubated with 11 and then treated with varying doses of 13. This regimen of preadministering 11 afforded up to an 8-fold decrease in the MIC of 13 (FIG. 15A). […] We had also noted that the addition of NaNO3 to the culture medium thoroughly abolished the formation of 10 and 11. […] Whereas previously reported resistance mechanisms involving antibiotic modification depended on the enzymatic modification of target substrates, fungal metabolites 10 and 11 functioned as electrophilic warheads that were reactive to a wide variety of natural and synthetic organic substances. The actions of these metabolites serve to limit the deleterious effects of antibiotics/toxins against their microbial targets.
The effects of compounds on fungal growth of fungi were tested using the method described in the NCCLS M38-A guidelines with following modifications. Fungi were cultured on PDA plates (potato dextrose agar, Becton Dickinson and Company) at 25° C. for 6-10 days. The spores/mycelia were disrupted by mechanical agitation and diluted in RPMI 1640 medium (Sigma Chemical Corporation) buffered to pH 7.0 with MOPS (0.165 M, Sigma). Test compounds were prepared in DMSO or EtOH at stock concentrations of 10 mM before being serially diluted in 50 μL RPMI 1640 plus MOPS medium for testing. Aliquots of spore suspension were added to the medium containing the diluted compounds or vehicle (<1% by vol.). After 72 h of incubation at 25° C., the optical densities of fungi were measured using a microplate reader (Infinite M200, Tecan Group Ltd.). The minimum inhibitory concentration (MIC) for growth was defined as the lowest concentration causing prominent growth reduction (>80%). The RPMI 1640 medium was replaced by PDB medium or PDB-N(PDB with 2 g/L NaNO3) for the indicated antifungal tests.

Data set [2] relates to four Tolypocladium spp. (T1-T4), four Penicillium spp. (P1-P4) and Aspergillus niger (A1). Nature of the data set: Antifungal test (MIC) against a panel of test fungi. Format: cell-based. The note with it: against all of the fungal strains of the panel, 72 h, 25° C., MIC = >80% growth reduction, read-out: MIC (growth inhibition). The procedure:
as §2, with “The actions of these metabolites serve to limit the deleterious effects of antibiotics/toxins against their microbial targets.” left out
(§3) The effects of compounds on fungal growth of fungi were tested using the method described in the NCCLS M38-A guidelines with following modifications. […] After 72 h of incubation at 25° C., the optical densities of fungi were measured using a microplate reader (Infinite M200, Tecan Group Ltd.). […]

The subject of data set [3] is fungi T1, T2, P1, P4, and A1. Nature of the data set: Antifungal test of 13 on fungal cultures preincubated / co-treated with 11. Type of data set: cell-based, Tolypocladium spp., Penicillium spp., Aspergillus niger.
From the text: as §1
This prompted us to ask the question what effect the addition of the shikimate analogue moiety had on the bioactivities of compounds 8, 9, 12, and the other nucleophilic substances that we tested. A panel of fungi including four Tolypocladium spp. (T1-T4), four Penicillium spp. (P1-P4) and Aspergillus niger (A1) were selected for assessment. […] To test the capacity of 11 to block the toxicity of 13 in real time, fungal cultures were preincubated with 11 and then treated with varying doses of 13. This regimen of preadministering 11 afforded up to an 8-fold decrease in the MIC of 13 (FIG. 15A). […] We had also noted that the addition of NaNO3 to the culture medium thoroughly abolished the formation of 10 and 11. […]
as §3

Data set [4] has as its system EpiDerm™ reconstructed human epidermis tissues. Briefly: Time course toxicity in EpiDerm tissues (MTT assay). Format: cell-based. The note with it: after 24 hours. The procedure:
All substances are safe for greater than 24 hours, at even a very high dose of 500 μM. […] Viability of EpiDerm™ tissues was determined by MTT assay.

In a further data set the test system is IL-1 alpha. Nature of the data set: IL-1 alpha cytokine response in media of EpiDerm tissues (ELISA). The note with it: media of EpiDerm tissues after exposure. Format: cell-based, human. How it is done: IL-1 alpha secretion was not elevated in response to the test compounds, indicating a low potential for allergic reactions. […] Cytokine levels were determined by ELISA.

Data set [5] in a line: Stability / isomerization in solvents. Type of data set: physicochemical. The note with it: for stability in solvents: CH2Cl2, CHCl3, MeOH, and EtOH at room temperature; for stability on prolonged storage: in alcohol over several weeks. The text has this: The resulting mixture was purified on HPLC yielding 4 and its diastereomer 5. […] The ^1H and ^13C NMR data of 4 and 5 were almost identical (Tables S2 and S3 of the appendix of U.S. Provisional Patent Application 62/295,343). […] Thus, the absolute configuration of C-3′-C-5′ was deduced as 3'S,4'S,5'S, opposite to that of 4.

Values after ≈ are worked out from the molar mass of the structure shown.

For the molecule `COC(=O)C1=C[C@H](O)[C@H](O)[C@H](O)[C@H]1Cl` [Compound 11, (+)-pericosine A], the entries for the “neutralization of thiol on a surface (pig skin)” value in data set [1] (listed as Pericosine A) and in data set [1] (listed as pericosine A) were “completely neutralize” and “quantitative consumption”, respectively.
What is called MIC is the lowest concentration found to suppress growth. For the molecule `Cc1cc(C2CCCCC2)n(O)c(=O)c1` [Compound 13, ciclopirox], in the data set on Tolypocladium sp. T1, the “effect of supplemental NaNO3 in test medium on antifungal efficacy” value is on record as “enhanced”; the “sensitivity of T1 to antifungal activity, normal versus NaNO3-supplemented medium” value is “equally sensitive”; the “resistance of T1 culture” value was “increasingly resistant”. Moreover, the MIC in data set [2] was in the range of 1 to 50 µM (≈ 0.207 to 10.4 µg/mL). For the same molecule, in data set [3] (co-treatment by 11 plus 13, fungi T1, T2, P1, P4, A1), the “antifungal efficacy of 13 on co-treatment with 11” value is given as “reduced”. Besides, the “decrease in the MIC of 13” value in data set [3] (fungal cultures preincubated with 11, then treated with varying doses of 13) is not above 8 fold.
Regarding PF1140 [Compound 8], in the data set on Tolypocladium sp. T1, the “effect of supplemental NaNO3 in test medium on antifungal efficacy” value is recorded as “enhanced”; the “sensitivity of T1 to antifungal activity, normal versus NaNO3-supplemented medium” value is “equally sensitive”; the “resistance of T1 culture” value is recorded as “increasingly resistant”.
For the molecule Triton X-100, the EpiDerm tissue outcome in data set [4] (1% control in the test with activating compound and fragrance) is reported as “epidermal death”; in data set [4] (1% control, MTT assay), “epidermal death”. Further, the IL-1 alpha secretion entry in the data set with IL-1 alpha is given as “significant response”.
For pseudomaximiscin A [Compound 4], in data set [5], the stability in solvents entry is given as “stable for several days” and the “stability on prolonged storage” value is on record as “modest levels of compound rearrangement”. The “stability in DMSO-d6” value in data set [5] (dissolved in DMSO-d6) is recorded as “Rapid isomerization”.
Regarding pseudomaximiscin B [Compound 5], in data set [5], the stability in solvents result was “stable for several days” and the “stability on prolonged storage” value is recorded as “modest levels of compound rearrangement”.

The record behind these values is patent publication US20220144747A1, “SHIKIMATE ANALOGUES AND METHODS OF USE” (The Board of Regents of the University of Oklahoma, priority 2016, published 2022).
